Values of other authors in article PMC9516332 (Frontiers in Oncology, 2022).
Read-outs that look alike come from different tables or passages of the source.

Tests used:
[1] = target: T1, panel of 255 wild-type kinases (Homo sapiens, UniProt P29323); details: kinase EPHB2, 1 µmol/L single concentration, cited from earlier work
T1 sequence (P29323 19-1055): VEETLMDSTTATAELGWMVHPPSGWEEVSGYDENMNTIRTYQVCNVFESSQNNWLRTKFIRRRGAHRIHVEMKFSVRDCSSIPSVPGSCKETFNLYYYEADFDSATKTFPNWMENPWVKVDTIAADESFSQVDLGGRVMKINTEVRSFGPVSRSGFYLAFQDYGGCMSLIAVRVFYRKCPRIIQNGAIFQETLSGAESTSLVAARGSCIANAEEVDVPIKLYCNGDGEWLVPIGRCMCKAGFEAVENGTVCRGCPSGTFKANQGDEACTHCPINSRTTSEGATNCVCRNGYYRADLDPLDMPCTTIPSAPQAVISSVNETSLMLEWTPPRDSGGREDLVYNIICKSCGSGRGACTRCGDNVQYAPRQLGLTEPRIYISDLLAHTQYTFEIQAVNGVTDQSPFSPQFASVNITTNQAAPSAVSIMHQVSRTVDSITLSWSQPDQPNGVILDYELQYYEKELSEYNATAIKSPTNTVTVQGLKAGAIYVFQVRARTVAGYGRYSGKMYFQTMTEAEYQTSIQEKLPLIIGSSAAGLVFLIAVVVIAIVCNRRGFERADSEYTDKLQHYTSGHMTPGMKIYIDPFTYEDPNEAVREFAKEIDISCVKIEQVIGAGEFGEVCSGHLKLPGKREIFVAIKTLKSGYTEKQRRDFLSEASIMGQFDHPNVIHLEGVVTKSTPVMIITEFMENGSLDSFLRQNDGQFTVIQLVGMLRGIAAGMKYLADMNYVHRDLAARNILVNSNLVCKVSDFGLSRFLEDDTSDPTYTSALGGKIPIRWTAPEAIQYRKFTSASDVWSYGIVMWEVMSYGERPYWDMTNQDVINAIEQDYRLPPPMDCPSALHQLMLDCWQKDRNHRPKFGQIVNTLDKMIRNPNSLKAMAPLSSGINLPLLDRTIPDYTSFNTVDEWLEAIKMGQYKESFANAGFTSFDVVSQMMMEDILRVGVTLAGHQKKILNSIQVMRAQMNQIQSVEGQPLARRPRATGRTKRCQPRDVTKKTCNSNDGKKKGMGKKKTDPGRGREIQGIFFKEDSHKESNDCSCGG

[2] = target: T2, panel of 255 wild-type kinases (Homo sapiens, UniProt P43403); details: kinase ZAP70, 1 µmol/L single concentration, cited from earlier work
T2 sequence (P43403 1-619): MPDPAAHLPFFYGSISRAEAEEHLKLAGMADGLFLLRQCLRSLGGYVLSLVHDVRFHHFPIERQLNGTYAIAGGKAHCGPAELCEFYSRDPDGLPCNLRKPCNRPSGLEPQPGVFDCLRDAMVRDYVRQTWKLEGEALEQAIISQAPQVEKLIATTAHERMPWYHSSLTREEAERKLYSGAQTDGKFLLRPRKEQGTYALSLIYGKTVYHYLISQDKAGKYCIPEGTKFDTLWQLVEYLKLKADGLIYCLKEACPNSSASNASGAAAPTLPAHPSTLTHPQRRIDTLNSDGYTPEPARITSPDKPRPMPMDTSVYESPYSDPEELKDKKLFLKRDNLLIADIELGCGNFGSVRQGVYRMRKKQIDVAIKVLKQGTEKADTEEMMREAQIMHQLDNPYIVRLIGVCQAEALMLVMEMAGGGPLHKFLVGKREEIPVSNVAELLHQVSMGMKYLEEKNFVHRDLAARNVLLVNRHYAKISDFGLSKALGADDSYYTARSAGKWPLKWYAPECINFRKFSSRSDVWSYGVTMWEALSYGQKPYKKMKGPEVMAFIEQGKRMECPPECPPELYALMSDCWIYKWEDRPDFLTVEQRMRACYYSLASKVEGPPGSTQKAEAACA

[3] = target: panel of 255 wild-type kinases (Homo sapiens, UniProt Q05655); details: cited from earlier work
[4] = target: T3, panel of 255 wild-type kinases (Homo sapiens, UniProt Q13470); details: kinase TNK1, 1 µmol/L single concentration, cited from earlier work
T3 sequence (Q13470 1-666): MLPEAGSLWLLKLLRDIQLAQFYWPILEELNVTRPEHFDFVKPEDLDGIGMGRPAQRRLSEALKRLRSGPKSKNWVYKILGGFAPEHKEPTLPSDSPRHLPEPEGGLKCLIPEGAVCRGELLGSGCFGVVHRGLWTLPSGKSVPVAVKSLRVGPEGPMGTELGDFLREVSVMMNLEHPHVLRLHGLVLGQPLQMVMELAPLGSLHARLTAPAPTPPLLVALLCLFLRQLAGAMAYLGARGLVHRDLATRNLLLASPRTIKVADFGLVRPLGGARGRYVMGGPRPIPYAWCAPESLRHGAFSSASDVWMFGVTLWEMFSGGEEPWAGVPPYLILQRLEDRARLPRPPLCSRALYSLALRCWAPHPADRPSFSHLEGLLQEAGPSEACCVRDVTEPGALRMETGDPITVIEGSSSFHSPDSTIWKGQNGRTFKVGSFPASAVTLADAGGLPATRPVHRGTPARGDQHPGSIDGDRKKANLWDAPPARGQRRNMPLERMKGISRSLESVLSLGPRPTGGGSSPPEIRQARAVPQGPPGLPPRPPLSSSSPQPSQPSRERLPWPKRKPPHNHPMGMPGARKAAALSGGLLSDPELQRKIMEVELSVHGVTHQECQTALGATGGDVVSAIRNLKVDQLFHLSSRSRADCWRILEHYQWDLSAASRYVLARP

[5] = target: panel of 255 wild-type kinases (Homo sapiens, UniProt Q15303); details: kinase HER4, 1 µmol/L single concentration, cited from earlier work
[6] = target: panel of 255 wild-type kinases (Homo sapiens, UniProt Q9UKE5); details: cited from earlier work
[7] = target: panel of 255 wild-type kinases (Homo sapiens, UniProt Q9Y2H1); details: NDR2, 1 µmol/L single concentration, cited from earlier work
[8] = ref DOI: 10.1158/1535-7163.MCT-18-0877
[9] = kinase PKCδ, 1 µmol/L single concentration, ref DOI: 10.1158/1535-7163.MCT-18-0877
[10] = kinase TNIK, 1 µmol/L single concentration, ref DOI: 10.1158/1535-7163.MCT-18-0877
[11] = ref DOI: 10.1371/journal.pone.0092146
[12] = kinase PKCδ, 1 µmol/L single concentration, ref DOI: 10.1371/journal.pone.0092146
[13] = kinase TNIK, 1 µmol/L single concentration, ref DOI: 10.1371/journal.pone.0092146

SMILES	%-inhibition at 1 µmol/L, EPHB2 [1, 8] [%]	%-inhibition at 1 µmol/L, ZAP70 [2, 8] [%]	%-inhibition at 1 µmol/L, PKCδ [3, 9] [%]	%-inhibition at 1 µmol/L, TNK1 [4, 8] [%]	%-inhibition at 1 µmol/L, HER4 [5, 8] [%]	%-inhibition at 1 µmol/L, TNIK [6, 10] [%]	%-inhibition, NDR2 [7, 8] [%]	%-inhibition at 1 µmol/L, EPHB2 [1, 11] [%]	%-inhibition at 1 µmol/L, ZAP70 [2, 11] [%]	%-inhibition at 1 µmol/L, PKCδ [3, 12] [%]	%-inhibition at 1 µmol/L, TNK1 [4, 11] [%]	%-inhibition at 1 µmol/L, HER4 [5, 11] [%]	%-inhibition at 1 µmol/L, TNIK [6, 13] [%]	%-inhibition, NDR2 [7, 11] [%]	%-inhibition at 1 µmol/L, TNIK [6] [%]	%-inhibition at 1 µmol/L, PKCδ [3] [%]
C=CC(=O)N1CCC[C@@H](n2nc(-c3ccc(Oc4ccccc4)cc3)c3c(N)ncnc32)C1 [ibrutinib]	28	-4.51	0.525	6	99	-1.62	3.47	–	–	–	–	–	–	–	–	–
CC(=O)Nc1cccc(-n2c(=O)n(C3CC3)c(=O)c3c(Nc4ccc(I)cc4F)n(C)c(=O)c(C)c32)c1 [trametinib]	–	–	–	–	–	–	–	-8	-3	-4.75	-2.58	2.34	3	-1.48	–	–
Cc1cc(Nc2ncc(Cl)c(Nc3ccccc3S(=O)(=O)C(C)C)n2)c(OC(C)C)cc1C1CCNCC1 [ceritinib]	15	10	5	101	51	25	14	–	–	–	–	–	–	–	–	–
C[C@@H](Oc1cc(-c2cnn(C3CCNCC3)c2)cnc1N)c1c(Cl)ccc(F)c1Cl [crizotinib]	–	–	–	–	–	–	–	57	21	-1.14	41	-18	–	-4.76	11	–
C=CC(=O)Nc1cc(Nc2nccc(-c3cn(C)c4ccccc34)n2)c(OC)cc1N(C)CCN(C)C [osimertinib]	2.8	18	16	100	96	84	10	–	–	–	–	–	–	–	–	–
CCCS(=O)(=O)Nc1ccc(F)c(C(=O)c2c[nH]c3ncc(-c4ccc(Cl)cc4)cc23)c1F [vemurafenib]	–	–	–	–	–	–	–	-2.11	6	-5	13	11	33	-2.51	–	–
O=C(c1ccc(F)c(F)c1Nc1ccc(I)cc1F)N1CC(O)([C@@H]2CCCCN2)C1 [cobimetinib]	1.53	-3	-2.12	4.29	11	1.06	2.54	–	–	–	–	–	–	–	–	–
CC(C)(C)c1nc(-c2cccc(NS(=O)(=O)c3c(F)cccc3F)c2F)c(-c2ccnc(N)n2)s1 [dabrafenib]	–	–	–	–	–	–	–	-3.38	3.47	-6	100	23	15	-2	–	–
CO[C@@H]1[C@H](N(C)C(=O)c2ccccc2)C[C@H]2O[C@]1(C)n1c3ccccc3c3c4c(c5c6ccccc6n2c5c31)C(=O)NC4 [midostaurin]	4.5	94	–	101	77	94	22	–	–	–	–	–	–	–	–	93
CC#CC(=O)N1CCC[C@H]1c1nc(-c2ccc(C(=O)Nc3ccccn3)cc2)c2c(N)nccn12 [acalabrutinib]	-0.111	-1.53	-9	-1.8	78	-0.812	-6.41	–	–	–	–	–	–	–	–	–
